Data on three compounds can be found in PubChem BioAssay AID1259411 (Chemical Carcinogenesis Research Information System (CCRIS), 2018).

Activity calls are given as the source filed them. The rule behind the calls is not given here.

The data set deals with rodent carcinogenicity bioassays, tumor incidence. Kind of data set: CCRIS carcinogenicity studies. A digest of the protocol:
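NCI-built, expert-reviewed records of carcinogenicity and related test outcomes (mutagenicity, tumor promotion/inhibition) compiled from published and report sources, historical span 1985-2011, not updated.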

On to `Nc1ccc(Oc2ccc(N)cc2)cc1`, for which the carcinogen call is, setting by setting: (Species: MOUSE, Strain/Sex: B6C3F1/FEMALE, Route: ORAL, Dose: 0, 0.015, 0.03, 0.08% IN DIET FOR 103 WK (STUDY DURATION: 104 WK), Dose: 0, 0.015, 0.03, 0.08% IN DIET FOR 103 WK (STUDY DURATION: 104 WK), Tumor Site: Type of Lesion: THYROID GLAND: FOLLICULAR ADENOMA, LIVER: ADENOMA, LIVER: HEPATOCELLULAR CARCINOMA, HARDERIAN GLAND: ADENOMA, Tumor Site: Type of Lesion: THYROID GLAND: FOLLICULAR ADENOMA, LIVER: ADENOMA, LIVER: HEPATOCELLULAR CARCINOMA, HARDERIAN GLAND: ADENOMA) “active; positive”; (Species: MOUSE, Strain/Sex: B6C3F1/FEMALE, Route: ORAL, Dose: 0, 150, 300, 800 PPM IN DIET, Dose: 0, 150, 300, 800 PPM IN DIET, Tumor Site: Type of Lesion: LIVER: HEPATOCELLULAR ADENOMA OR CARCINOMA, THYROID GLAND: FOLLICULAR CELL ADENOMA, HARDERIAN GLAND: ADENOMA, NOS, Tumor Site: Type of Lesion: LIVER: HEPATOCELLULAR ADENOMA OR CARCINOMA, THYROID GLAND: FOLLICULAR CELL ADENOMA, HARDERIAN GLAND: ADENOMA, NOS) “active; positive”; (Species: MOUSE, Strain/Sex: B6C3F1/MALE, Route: ORAL, Dose: 0, 0.015, 0.03, 0.08% IN DIET FOR 103 WK (STUDY DURATION: 104 WK), Dose: 0, 0.015, 0.03, 0.08% IN DIET FOR 103 WK (STUDY DURATION: 104 WK), Tumor Site: Type of Lesion: THYROID GLAND: FOLLICULAR HYPERPLASIA, HARDERIAN GLAND: ADENOMA) “active; positive”; (Species: MOUSE, Strain/Sex: B6C3F1/MALE, Route: ORAL, Dose: 0, 150, 300, 800 PPM IN DIET, Dose: 0, 150, 300, 800 PPM IN DIET, Tumor Site: Type of Lesion: LIVER: HEPATOCELLULAR ADENOMA OR CARCINOMA, HARDERIAN GLAND: ADENOMA, NOS) “active; positive”; (Species: RAT, Route: SUBCUTANEOUS, Tumor Site: Type of Lesion: LIVER) “active; positive”; (Species: RAT, Strain/Sex: F344/FEMALE, Route: ORAL, Dose: 0, 0.02, 0.04, 0.05% IN DIET FOR 103 WK (STUDY DURATION: 104 WK), Dose: 0, 0.02, 0.04, 0.05% IN DIET FOR 103 WK (STUDY DURATION: 104 WK), Tumor Site: Type of Lesion: THYROID GLAND: FOLLICULAR CARCINOMA, THYROID GLAND: FOLLICULAR ADENOMA, LIVER: NEOPLASTIC NODULE, LIVER: HEPATOCELLULAR, Tumor Site: Type of Lesion: THYROID GLAND: FOLLICULAR CARCINOMA, THYROID GLAND: FOLLICULAR ADENOMA, LIVER: NEOPLASTIC NODULE, LIVER: HEPATOCELLULAR) “active; positive”. Besides, the carcinogen call reads like this: (Species: RAT, Strain/Sex: F344/FEMALE, Route: ORAL, Dose: 0, 200, 400, 500 PPM IN DIET, Dose: 0, 200, 400, 500 PPM IN DIET, Tumor Site: Type of Lesion: LIVER: HEPATOCELLULAR CARCINOMA OR NEOPLASTIC NODULE, THYROID GLAND: FOLLICULAR CELL ADENOMA OR CARCINOMA) “active; positive”; (Species: RAT, Strain/Sex: F344/MALE, Route: ORAL, Dose: 0, 0.02, 0.04, 0.05% IN DIET FOR 103 WK (STUDY DURATION: 104 WK), Dose: 0, 0.02, 0.04, 0.05% IN DIET FOR 103 WK (STUDY DURATION: 104 WK), Tumor Site: Type of Lesion: THYROID GLAND: FOLLICULAR CARCINOMA, THYROID GLAND: FOLLICULAR ADENOMA, LIVER: NEOPLASTIC NODULE, LIVER: HEPATOCELLULAR, Tumor Site: Type of Lesion: THYROID GLAND: FOLLICULAR CARCINOMA, THYROID GLAND: FOLLICULAR ADENOMA, LIVER: NEOPLASTIC NODULE, LIVER: HEPATOCELLULAR) “active; positive”; (Species: RAT, Strain/Sex: F344/MALE, Route: ORAL, Dose: 0, 200, 400, 500 PPM IN DIET, Dose: 0, 200, 400, 500 PPM IN DIET, Tumor Site: Type of Lesion: LIVER: HEPATOCELLULAR CARCINOMA OR NEOPLASTIC NODULE, THYROID GLAND: FOLLICULAR CELL ADENOMA OR CARCINOMA) “active; positive”.

Take `Cc1cc(Cl)ccc1N`: the carcinogen call is “active; positive” (Species: MOUSE, Strain/Sex: B6C3F1/FEMALE, Route: ORAL, Dose: 0, 1250, 5000 PPM IN DIET, Dose: 0, 1250, 5000 PPM IN DIET, Tumor Site: Type of Lesion: BLOOD VESSELS: HEMANGIOMA OR HEMANGIOSARCOMA); “active; positive” (Species: MOUSE, Strain/Sex: B6C3F1/MALE, Route: ORAL, Dose: 0, 3750, 15000 PPM IN DIET, Dose: 0, 3750, 15000 PPM IN DIET, Tumor Site: Type of Lesion: BLOOD VESSELS: HEMANGIOMA OR HEMANGIOSARCOMA); “inactive; negative” (Species: RAT, Strain/Sex: F344/FEMALE, Route: ORAL, Dose: 0, 1250, 5000 PPM IN DIET, Dose: 0, 1250, 5000 PPM IN DIET); “inactive; negative” (Species: RAT, Strain/Sex: F344/MALE, Route: ORAL, Dose: 0, 1250, 5000 PPM IN DIET, Dose: 0, 1250, 5000 PPM IN DIET).

Regarding `Nc1cc([N+](=O)[O-])ccc1O`, the carcinogen call runs as follows: (Species: MOUSE, Strain/Sex: B6C3F1/FEMALE, Route: GAVAGE, Dose: 0, 125, 250 MG/KG IN CORN OIL 5D/WK FOR 103 WK (STUDY DURATION: 105 WK), Dose: 0, 125, 250 MG/KG IN CORN OIL 5D/WK FOR 103 WK (STUDY DURATION: 105 WK)) “inactive; negative”; (Species: MOUSE, Strain/Sex: B6C3F1/MALE, Route: GAVAGE, Dose: 0, 125, 250 MG/KG IN CORN OIL 5D/WK FOR 103 WK (STUDY DURATION: 105 WK), Dose: 0, 125, 250 MG/KG IN CORN OIL 5D/WK FOR 103 WK (STUDY DURATION: 105 WK)) “inactive; negative”; (Species: RAT, Strain/Sex: F344/FEMALE, Route: GAVAGE, Dose: 0, 125, 250 MG/KG IN CORN OIL 5D/WK FOR 103 WK (STUDY DURATION: 105 WK), Dose: 0, 125, 250 MG/KG IN CORN OIL 5D/WK FOR 103 WK (STUDY DURATION: 105 WK)) “inactive; negative”; (Species: RAT, Strain/Sex: F344/MALE, Route: GAVAGE, Dose: 0, 125, 250 MG/KG IN CORN OIL 5D/WK FOR 103 WK (STUDY DURATION: 105 WK), Dose: 0, 125, 250 MG/KG IN CORN OIL 5D/WK FOR 103 WK (STUDY DURATION: 105 WK), Tumor Site: Type of Lesion: PREPUTIAL GLAND: ADENOMA OR CARCINOMA) “active; positive”.
